Measurements published in ChEMBL document CHEMBL4673282, “Identification of a New Heterocyclic Scaffold for Inhibitors of the Polo-Box Domain of Polo-like Kinase 1” (J Med Chem, 2020).
Converted amounts (≈) assume the structure as drawn.

How the values were obtained:
[1] = Half life in rat liver microsomes at 1 uM measured up to 60 mins in presence of NADPH generating system; settings: 1 h
[2] = Aqueous solubility of compound; format: physicochemical; settings: buffer
in vitro = settings: PAMPA
Description: Permeability of the compound by PAMPA

Row | SMILES | t1/2 [1] [min] | solubility [2] [µg/mL] | Papp (in vitro) [×10⁻⁶ cm/s] | solubility ([2]; read-out: solubility) [µg/mL]
1 | O=c1c2cc(F)ccc2n2c(=S)[nH]nc2n1CCC(F)(F)F | > 30 | 17.3 (≈ 52.1 µM) | 117 | –
2 | O=c1c2cc(F)ccc2n2c(=S)[nH]nc2n1CCc1ccc(Cl)cc1 | > 30 | 1.2 (≈ 3.2 µM) | < 1 | –
3 | O=c1c2cc(F)ccc2n2c(=S)[nH]nc2n1CCN1CCOCC1 | > 30 | > 52 | 67 | –
4 | O=c1c2ccccc2n2c(=S)[nH]nc2n1CCC(F)(F)F | > 30 | 23.3 (≈ 74.1 µM) | 82 | –
5 | O=c1c2cc(F)ccc2n2c(=S)[nH]nc2n1CCN1CCCCC1 | > 30 | 2.4 (≈ 6.91 µM) | 358 | –
6 | CC(C)(C)OC(=O)N1CC(CCn2c(=O)c3cc(F)ccc3n3c(=S)[nH]nc23)C1 | – | 15 (≈ 35.8 µM) | 229 | –
7 | O=C(NCCCn1c(=O)c2cc(F)ccc2n2c(=S)[nH]nc12)C1CCOCC1 | – | < 1 | 8 | –
8 | O=c1c2cc(F)ccc2n2c(=S)[nH]nc2n1CCCO | > 30 | > 43 | 222 | –
9 | O=C(O)CCC(=O)NCCCn1c(=O)c2cc(F)ccc2n2c(=S)[nH]nc12 | > 30 | > 58 | < 1 | –
10 | O=c1c2ccncc2n2c(=S)[nH]nc2n1CCc1ccccc1 | 15.8 | 17.3 (≈ 53.5 µM) | 202 | –
11 | COc1cccc(CC(=O)NCCCn2c(=O)c3cc(F)ccc3n3c(=S)[nH]nc23)c1 | 20.1 | – | 300 | > 65
12 | O=c1c2cc(F)ccc2n2c(=S)[nH]nc2n1Cc1ccccc1 | > 30 | 8.3 (≈ 25.4 µM) | 841 | –
13 | O=c1c2cc(F)ccc2n2c(=S)[nH]nc2n1CCC1CCC(F)(F)CC1 | > 30 | < 1 | 201 | –
14 | O=C(NCCCn1c(=O)c2cc(F)ccc2n2c(=S)[nH]nc12)c1ccccc1 | > 30 | 21.9 (≈ 55.1 µM) | 267 | –
15 | CCn1c(=O)c2ccccc2n2c(=S)[nH]nc12 | > 30 | > 36 | 427 | –
16 | CNC(=S)N1CN(CCc2ccccc2)C(=O)c2cc(F)ccc21 | 2.2 | 4.5 (≈ 13.1 µM) | 161 | –
17 | O=c1c2cc(Br)ccc2n2c(=S)[nH]nc2n1CCc1ccccc1 | > 30 | < 1 | 162 | –
18 | CN1CCN(CC(=O)NCCCn2c(=O)c3cc(F)ccc3n3c(=S)[nH]nc23)CC1 | > 30 | > 64 | < 1 | –
19 | CN(C)CCn1c(=O)c2cc(F)ccc2n2c(=S)[nH]nc12 | > 30 | > 45 | 117 | –
20 | CCOP(=O)(CCn1c(=O)c2cc(F)ccc2n2c(=S)[nH]nc12)OCC | > 30 | > 59 | – | –
21 | O=C(Cc1cccc(F)c1)NCCCn1c(=O)c2cc(F)ccc2n2c(=S)[nH]nc12 | 26.5 | > 63 | – | –
22 | O=c1c2cccc(F)c2n2c(=S)[nH]nc2n1CCc1ccccc1 | > 30 | 3.4 (≈ 9.99 µM) | 141 | –

Row | SMILES | t1/2 [1] [min] | solubility [2] [µg/mL] | Papp (in vitro) [×10⁻⁶ cm/s] | solubility ([2]; read-out: solubility) [µg/mL]
23 | O=C(NCCCn1c(=O)c2cc(F)ccc2n2c(=S)[nH]nc12)C1CCNCC1 | > 30 | > 60 | – | –
24 | CC(=O)Nc1ccc2c(c1)c(=O)n(CCc1ccccc1)c1n[nH]c(=S)n21 | > 30 | 2.2 (≈ 5.8 µM) | 253 | –
25 | O=C(NCCCn1c(=O)c2cc(F)ccc2n2c(=S)[nH]nc12)C1CCCC1 | > 30 | > 58 | 155 | –
26 | O=c1c2ncccc2n2c(=S)[nH]nc2n1CCc1ccccc1 | > 30 | 26.9 (≈ 83.2 µM) | – | –
27 | O=C(CN1CCOCC1)NCCCn1c(=O)c2cc(F)ccc2n2c(=S)[nH]nc12 | > 30 | > 62 | < 1 | –
28 | O=c1c2cc(F)ccc2n2c(=S)[nH]nc2n1CCN1CCC(F)(F)CC1 | > 30 | 20.2 (≈ 52.7 µM) | 234 | –
29 | O=c1c2cc(F)ccc2n2cnnc2n1CCc1ccccc1 | 11.8 | 14.8 (≈ 48 µM) | 924 | –
30 | CN1CCCC1CCn1c(=O)c2cc(F)ccc2n2c(=S)[nH]nc12 (racemic) | > 30 | 17.8 (≈ 51.2 µM) | – | –
31 | CC(CN(C)C)n1c(=O)c2cc(F)ccc2n2c(=S)[nH]nc12 (racemic) | > 30 | > 47 | 186 | –
32 | CN1CCN(CCn2c(=O)c3cc(F)ccc3n3c(=S)[nH]nc23)CC1 | > 30 | > 54 | – | –
33 | CC(C)(C)OC(=O)NC1CCC(C(=O)NCCCn2c(=O)c3cc(F)ccc3n3c(=S)[nH]nc23)CC1 (racemic) | 24.8 | > 77 | 330 | –
34 | O=c1c2cc(F)ccc2n2c(=S)[nH]nc2n1CCc1ccccn1 | > 30 | 13 (≈ 38.1 µM) | 355 | –
35 | Cc1nnc2n(CCc3ccccc3)c(=O)c3cc(F)ccc3n12 | 10.7 | 11 (≈ 34.1 µM) | – | –
36 | CC(C)(C)[C@H]1CC[C@H](C(=O)NCCCn2c(=O)c3cc(F)ccc3n3c(=S)[nH]nc23)CC1 | > 30 | 1.1 (≈ 2.39 µM) | – | –
37 | O=c1c2cc(F)ccc2n2c(=S)[nH]nc2n1CCc1ccccc1Cl | 22.8 | 3 (≈ 8 µM) | – | –
38 | CC(=O)NCCCn1c(=O)c2cc(F)ccc2n2c(=S)[nH]nc12 | > 30 | > 50 | 18 | –
39 | CCCn1c(=O)c2cc(F)ccc2n2c(=S)[nH]nc12 | > 30 | > 28 | – | –
40 | CC(C)(C)OC(=O)CC[C@H](N)C(=O)NCCCn1c(=O)c2cc(F)ccc2n2c(=S)[nH]nc12 | > 30 | 37.5 (≈ 78.4 µM) | – | –
41 | NS(=O)(=O)CCCC(=O)NCCCn1c(=O)c2cc(F)ccc2n2c(=S)[nH]nc12 | > 30 | 42.4 (≈ 95.8 µM) | 3 | –
42 | CCn1c(=O)c2cc(F)ccc2n2c(=S)[nH]nc12 | > 30 | > 39 | – | –
43 | O=c1c2cc(Cl)ccc2n2c(=S)[nH]nc2n1CCC(F)(F)F | > 30 | 5.1 (≈ 14.6 µM) | 257 | –
44 | O=C(CC1CCNCC1)NCCCn1c(=O)c2cc(F)ccc2n2c(=S)[nH]nc12 | > 30 | 37.5 (≈ 89.6 µM) | – | –

Row | SMILES | t1/2 [1] [min] | solubility [2] [µg/mL] | Papp (in vitro) [×10⁻⁶ cm/s] | solubility ([2]; read-out: solubility) [µg/mL]
45 | Nc1nnc2n(CCc3ccccc3)c(=O)c3cc(F)ccc3n12 | 29.4 | 2.2 (≈ 6.8 µM) | 885 | –
46 | O=c1c2cc(F)ccc2n2c(=S)[nH]nc2n1CCc1ccccc1 | > 30 | – | 77 | –
47 | NCCCCCC(=O)NCCCn1c(=O)c2cc(F)ccc2n2c(=S)[nH]nc12 | > 30 | 31.8 (≈ 78.2 µM) | – | –
48 | CS(=O)(=O)NCCCn1c(=O)c2cc(F)ccc2n2c(=S)[nH]nc12 | > 30 | 34 (≈ 91.5 µM) | – | –
49 | O=C(Cc1cccc(Cl)c1)NCCCn1c(=O)c2cc(F)ccc2n2c(=S)[nH]nc12 | 8.4 | > 66 | – | –
50 | O=c1c2cc(N3CCOCC3)ccc2n2c(=S)[nH]nc2n1CCc1ccccc1 | > 30 | 3.4 (≈ 8.34 µM) | – | –
51 | O=c1c2ccc(F)cc2n2c(=S)[nH]nc2n1CCc1ccccc1 | 22.7 | < 1 | 91 | –
52 | CC(C)(C)OC(=O)NCCOCCOCCOCCC(=O)NCCCn1c(=O)c2cc(F)ccc2n2c(=S)[nH]nc12 | 27.9 | > 88 | – | –
53 | NC1CCC(C(=O)NCCCn2c(=O)c3cc(F)ccc3n3c(=S)[nH]nc23)CC1 (racemic) | > 30 | 38.8 (≈ 92.7 µM) | – | –
54 | O=C(NCCCn1c(=O)c2cc(F)ccc2n2c(=S)[nH]nc12)C1CCCCN1 (racemic) | > 30 | > 60 | – | –
55 | N[C@@H](CCC(=O)O)C(=O)NCCCn1c(=O)c2cc(F)ccc2n2c(=S)[nH]nc12 | > 30 | 32 (≈ 75.8 µM) | – | –
56 | CC(C)(C)OC(=O)N1CCN(CCn2c(=O)c3cc(F)ccc3n3c(=S)[nH]nc23)CC1 | 26.3 | 20.5 (≈ 45.7 µM) | – | –
57 | NCCCn1c(=O)c2cc(F)ccc2n2c(=S)[nH]nc12.O=C(O)C(F)(F)F | > 30 | > 43 | < 1 | –
58 | CC(C)(C)OC(=O)CC[C@H](N)C(=O)NCCOCCOCCOCCOCCC(=O)NCCCn1c(=O)c2cc(F)ccc2n2c(=S)[nH]nc12 | > 30 | > 107 | – | –
59 | O=C(Cc1ccc(Br)cc1)NCCCn1c(=O)c2cc(F)ccc2n2c(=S)[nH]nc12 | 20.6 | < 1 | – | –
60 | CC(C)(C)OC(=O)NCCCCCC(=O)NCCCn1c(=O)c2cc(F)ccc2n2c(=S)[nH]nc12 | > 30 | > 75 | 405 | –
61 | O=c1c2cc(F)ccc2n2c(=S)[nH]nc2n1CCc1cccnc1 | > 30 | 25.1 (≈ 73.5 µM) | < 1 | –
62 | CC(C)(C)OC(=O)CC[C@H](NC(=O)OC(C)(C)C)C(=O)NCCCn1c(=O)c2cc(F)ccc2n2c(=S)[nH]nc12 | 3.8 | 41.6 (≈ 71.9 µM) | – | –
63 | CN(C)c1ccc2c(c1)c(=O)n(CCc1ccccc1)c1n[nH]c(=S)n21 | 13.3 | < 1 | 356 | –
64 | CC(=O)NCCn1c(=O)c2cc(F)ccc2n2c(=S)[nH]nc12 | > 30 | > 47 | – | –
65 | O=C(Cc1ccncc1)NCCCn1c(=O)c2cc(F)ccc2n2c(=S)[nH]nc12 | > 30 | – | < 1 | –
66 | O=c1c2cccnc2n2c(=S)[nH]nc2n1CCc1ccccc1 | > 30 | 4.9 (≈ 15.2 µM) | – | –
